Molecular target: T1, Human Factor D (Homo sapiens, UniProt P00746)
T1 construct: purified from human serum; purchased Complement Technology, Inc; host or cells: human serum (natural protein, not recombinant)
Experiment: Human Factor D assay (Z-L-Lys-SBzl/DTNB, absorbance at 405 nm)
Assay type: biochemical
Settings: not given
Protocol: Example 44. Human Factor D Assay
Human Factor D (purified from human serum, Complement Technology, Inc.) at 80 nM final concentration was incubated with test compound at various concentrations for 5 minutes at room temperature in 50 mM Tris, 1M NaCl, pH 7.5. A synthetic substrate Z-L-Lys-SBzl and DTNB (Ellman's reagent) are added to final concentrations of 100 µM each. Absorbance at 405 nm (A405) was recorded at 30 second intervals for 30 minutes using a microplate spectrophotometer. IC50 values are calculated by nonlinear regression of complement Factor D reaction rates as a function of test compound concentration.

T1 sequence (P00746 26-253): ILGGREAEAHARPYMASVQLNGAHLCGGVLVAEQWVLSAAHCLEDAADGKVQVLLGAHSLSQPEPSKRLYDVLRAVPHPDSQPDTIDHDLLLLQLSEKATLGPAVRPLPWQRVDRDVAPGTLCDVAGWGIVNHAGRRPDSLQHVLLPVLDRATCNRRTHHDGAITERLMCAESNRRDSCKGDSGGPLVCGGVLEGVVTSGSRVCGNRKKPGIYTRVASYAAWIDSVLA

`CC(=O)c1cn(CC(=O)N2[C@@H]3CCC[C@@H]3C[C@H]2C(=O)NCc2cccc(Cl)c2F)c2cc(P(=O)(O)O)ccc12` [Compound 7, 3-acetyl-1-(2-((2S,3aR,6aR)-2-(3-chloro-2-fluorobenzylcarbamoyl)hexahydrocyclopenta [b]pyrrol-1(2H)-yl)-2-oxoethyl)-1H-indol-6-ylphosphonic acid] and `CCCCOP(=O)(OCCCC)c1ccc2c(C(C)=O)cn(CC(=O)N3C[C@H](F)C[C@H]3C(=O)NCc3cccc(Cl)c3F)c2c1` [Compound 20, dibutyl 3-acetyl-1-(2-((2S,4R)-2-(3-chloro-2-fluorobenzylcarbamoyl)-4-fluoropyrrolidin-1-yl)-2-oxoethyl)-1H-indol-6-ylphosphonate] cannot be ordered by IC50: < 1000 nM for the first, < 1000 nM for the second.

Same assay, conditions: Table 1; Human Factor D 80 nM, purified from human serum; substrate Z-L-Lys-SBzl; read-out: IC50

`CCOP(=O)(OCC)c1ccc2c(C(C)=O)cn(CC(=O)N3C[C@H](F)C[C@H]3C(=O)NCc3cccc(Cl)c3F)c2c1` [Compound 1, diethyl 3-acetyl-1-(2-((2S,4R)-2-(3-chloro-2-fluorobenzylcarbamoyl)-4-fluoropyrrolidin-1-yl)-2-oxoethyl)-1H-indol-6-ylphosphonate] and `CCOP(=O)(OCC)c1ccc2c(c1)c(C(C)=O)cn2CC(=O)N1C[C@H](F)C[C@H]1C(=O)NCc1cccc(Cl)c1F` [Compound 8, diethyl 3-acetyl-1-(2-((2S,4R)-2-(3-chloro-2-fluorobenzylcarbamoyl)-4-fluoropyrrolidin-1-yl)-2-oxoethyl)-1H-indol-5-ylphosphonate] cannot be ordered by IC50: < 1000 nM for the first, < 1000 nM for the second.

First: CCOP(=O)(O)c1ccc2c(C(C)=O)cn(CC(=O)N3C[C@H](F)C[C@H]3C(=O)NCc3cccc(Cl)c3F)c2c1 [Compound 2, ethyl hydrogen 3-acetyl-1-(2-((2S,4R)-2-(3-chloro-2-fluorobenzylcarbamoyl)-4-fluoropyrrolidin-1-yl)-2-oxoethyl)-1H-indol-6-ylphosphonate]
Second: CCOP(=O)(O)c1ccc2c(c1)c(C(C)=O)cn2CC(=O)N1C[C@H](F)C[C@H]1C(=O)NCc1cccc(Cl)c1F [Compound 9, ethyl hydrogen 3-acetyl-1-(2-((2S,4R)-2-(3-chloro-2-fluorobenzylcarbamoyl)-4-fluoropyrrolidin-1-yl)-2-oxoethyl)-1H-indol-5-ylphosphonate]
The IC50 of the first is lower: < 1000 nM for the first, > 10000 nM for the second.

`CC(=O)c1cn(CC(=O)N2C[C@H](F)C[C@H]2C(=O)NCc2cccc(Cl)c2F)c2cc(P(=O)(O)O)ccc12` [Compound 3, 3-acctyl-1-(2-((2S,4R)-2-(3-chloro-2-fluorobenzylcarbamoyl)-4-fluoropyrrolidin-1-yl)-2-oxoethyl)-1H-indol-6-ylphosphonic acid] and `CC(=O)c1cn(CC(=O)N2C[C@H](F)C[C@H]2C(=O)NCc2cccc(Cl)c2F)c2ccc(P(=O)(O)O)cc12` [Compound 10, 3-acetyl-1-(2-((2S,4R)-2-(3-chloro-2-fluorobenzylcarbamoyl)-4-fluoropyrrolidin-1-yl)-2-oxoethyl)-1H-indol-5-ylphosphonic acid] cannot be ordered by IC50: < 1000 nM for the first, < 1000 nM for the second.

`CC(=O)c1cn(CC(=O)N2C[C@H](F)C[C@H]2C(=O)NCc2cccc(Cl)c2F)c2cc(P(=O)(OCOC(=O)OC(C)C)OCOC(=O)OC(C)C)ccc12` [Compound 4, ((3-acetyl-1-(2-((2S,4R)-2-(3-chloro-2-fluorobenzylcarbamoyl)-4-fluoropyrrolidin-1-yl)-2-oxoethyl)-1H-indol-6-yl)phosphoryl)bis(oxy) bis(methylene) isopropyl dicarbonate] and `CCOP(=O)(OCOC(=O)OC(C)C)c1ccc2c(C(C)=O)cn(CC(=O)N3C[C@H](F)C[C@H]3C(=O)NCc3cccc(Cl)c3F)c2c1` (stereo partly drawn) [Compound 6, ((3-acetyl-1-(2-((2S,4R)-2-(3-chloro-2-fluorobenzylcarbamoyl)-4-fluoropyrrolidin-1-yl)-2-oxoethyl)-1H-indol-6-yl)(ethoxy)phosphoryloxy) methyl isopropyl carbonate] cannot be ordered by IC50: < 1000 nM for the first, < 1000 nM for the second.

Compared with `CCOC(=O)c1nn(CC(=O)N2C[C@H](F)C[C@H]2C(=O)NCc2cccc(Cl)c2F)c2cc(P(=O)(OCC)OCC)ccc12` [Compound 11, ethyl 1-(2-((2S,4R)-2-(3-chloro-2-fluorobenzylcarbamoyl)-4-fluoropyrrolidin-1-yl)-2-oxoethyl)-6-(diethoxyphosphoryl)-1H-indazole-3-carboxylate], `CCOP(=O)(OCC)c1ccc2c(C(N)=O)nn(CC(=O)N3C[C@H](F)C[C@H]3C(=O)NCc3cccc(Cl)c3F)c2c1` [Compound 17, diethyl 3-carbamoyl-1-(2-((2S,4R)-2-(3-chloro-2-fluorobenzylcarbamoyl)-4-fluoropyrrolidin-1-yl)-2-oxoethyl)-1H-indazol-6-ylphosphonate] is lower in IC50: > 10000 nM for the first, < 1000 nM for the second.

Going from `CCOP(=O)(OCC)c1ccc2c(C(=O)O)nn(CC(=O)N3C[C@H](F)C[C@H]3C(=O)NCc3cccc(Cl)c3F)c2c1` [Compound 12, 1-(2-((2S,4R)-2-(3-chloro-2-fluorobenzylcarbamoyl)-4-fluoropyrrolidin-1-yl)-2-oxoethyl)-6-(diethoxyphosphoryl)-1H-indazole-3-carboxylic acid] to `CCOP(=O)(OCC)c1ccc2c(C(N)=O)cn(CC(=O)N3C[C@H](F)C[C@H]3C(=O)NCc3cccc(Cl)c3F)c2c1` [Compound 15, diethyl 3-carbamoyl-1-(2-((2S,4R)-2-(3-chloro-2-fluorobenzylcarbamoyl)-4-fluoropyrrolidin-1-yl)-2-oxoethyl)-1H-indol-6-ylphosphonate], the IC50 falls from > 10000 nM to < 1000 nM. The second is the more potent here.

`CCOP(=O)(OCC)c1ccc2c(C(=O)OC)cn(CC(=O)N3C[C@H](F)C[C@H]3C(=O)NCc3cccc(Cl)c3F)c2c1` [Compound 13, methyl 1-(2-((2S,4R)-2-(3-chloro-2-fluorobenzylcarbamoyl)-4-fluoropyrrolidin-1-yl)-2-oxoethyl)-6-(diethoxyphosphoryl)-1H-indole-3-carboxylate] and `CCOP(=O)(CC)c1ccc2c(C(C)=O)cn(CC(=O)N3C[C@H](F)C[C@H]3C(=O)NCc3cccc(Cl)c3F)c2c1` (stereo partly drawn) [Compound 24, ethyl 3-acetyl-1-(2-((2S,4R)-2-(3-chloro-2-fluorobenzylcarbamoyl)-4-fluoropyrrolidin-1-yl)-2-oxoethyl)-1H-indol-6-yl(ethyl)phosphinate] cannot be ordered by IC50: < 1000 nM for the first, < 1000 nM for the second.

`COC(=O)c1cn(CC(=O)N2C[C@H](F)C[C@H]2C(=O)NCc2cccc(Cl)c2F)c2cc(P(=O)(O)O)ccc12` [Compound 14, 1-(2-((2S,4R)-2-(3-chloro-2-fluorobenzylcarbamoyl)-4-fluoropyrrolidin-1-yl)-2-oxoethyl)-3-(methoxycarbonyl)-1H-indol-6-ylphosphonic acid] and `NC(=O)c1cn(CC(=O)N2C[C@H](F)C[C@H]2C(=O)NCc2cccc(Cl)c2F)c2cc(P(=O)(O)O)ccc12` [Compound 16, 3-carbamoyl-1-(2-((2S,4R)-2-(3-chloro-2-fluorobenzylcarbamoyl)-4-fluoropyrrolidin-1-yl)-2-oxoethyl)-1H-indol-6-ylphosphonic acid] cannot be ordered by IC50: < 1000 nM for the first, < 1000 nM for the second.

`NC(=O)c1nn(CC(=O)N2C[C@H](F)C[C@H]2C(=O)NCc2cccc(Cl)c2F)c2cc(P(=O)(O)O)ccc12` [Compound 18, 3-carbamoyl-1-(2-((2S,4R)-2-(3-chloro-2-fluorobenzylcarbamoyl)-4-fluoropyrrolidin-1-yl)-2-oxoethyl)-1H-indazol-6-ylphosphonic acid] and `CCCCOP(=O)(O)c1ccc2c(C(C)=O)cn(CC(=O)N3C[C@H](F)C[C@H]3C(=O)NCc3cccc(Cl)c3F)c2c1` [Compound 21, butyl hydrogen 3-acetyl-1-(2-((2S,4R)-2-(3-chloro-2-fluorobenzylcarbamoyl)-4-fluoropyrrolidin-1-yl)-2-oxoethyl)-1H-indol-6-ylphosphonate] cannot be ordered by IC50: < 1000 nM for the first, < 1000 nM for the second.

`CC(=O)c1cn(CC(=O)N2C[C@H](F)C[C@H]2C(=O)NCc2cccc(Cl)c2F)c2cc(P(=O)(OCC(F)(F)F)OCC(F)(F)F)ccc12` [Compound 19, bis(2,2,2-trifluoroethyl) 3-acetyl-1-(2-((2S,4R)-2-(3-chloro-2-fluorobenzylcarbamoyl)-4-fluoropyrrolidin-1-yl)-2-oxoethyl)-1H-indol-6-ylphosphonate] and `CC(=O)c1cn(CC(=O)N2C[C@H](F)C[C@H]2C(=O)NCc2cccc(Cl)c2F)c2cc(P(=O)(O)OCOC(=O)OC(C)C)ccc12` [Compound 22, ((3-acetyl-1-(2-((2S,4R)-2-(3-chloro-2-fluorobenzylcarbamoyl)-4-fluoropyrrolidin-1-yl)-2-oxoethyl)-1H-indol-6-yl)(hydroxy)phosphoryloxy) methyl isopropyl carbonate] cannot be ordered by IC50: < 1000 nM for the first, < 1000 nM for the second.

`CCOP(=O)(c1ccccc1)c1ccc2c(C(C)=O)cn(CC(=O)N3C[C@H](F)C[C@H]3C(=O)NCc3cccc(Cl)c3F)c2c1` (stereo partly drawn) [Compound 23, ethyl 3-acetyl-1-(2-((2S,4R)-2-(3-chloro-2-fluorobenzylcarbamoyl)-4-fluoropyrrolidin-1-yl)-2-oxoethyl)-1H-indol-6-yl(phenyl)phosphinate] and `CC(=O)c1cn(CC(=O)N2C[C@H](F)C[C@H]2C(=O)NCc2cccc(Cl)c2F)c2cc(P(=O)(O)c3ccccc3)ccc12` [Compound 25, 3-acetyl-1-(2-((2S,4R)-2-(3-chloro-2-fluorobenzylcarbamoyl)-4-fluoropyrrolidin-1-yl)-2-oxoethyl)-1H-indol-6-yl(phenyl)phosphinic acid] cannot be ordered by IC50: < 1000 nM for the first, < 1000 nM for the second.

For `CC(=O)c1cn(CC(=O)N2C[C@H](F)C[C@H]2C(=O)NCc2cccc(Cl)c2F)c2cc(P(=O)(OCOC(=O)C(C)(C)C)OCOC(=O)C(C)(C)C)ccc12` [Compound 26, ((3-acetyl-1-(2-((2S,4R)-2-(3-chloro-2-fluorobenzylcarbamoyl)-4-fluoropyrrolidin-1-yl)-2-oxoethyl)-1H-indol-6-yl)phosphoryl)bis(oxy)bis (methylene) bis(2,2-dimethylpropanoate)], the IC50 was < 1000 nM.

Source: patent publication US10000516B2 (priority 2015, dated 2018)
